Key:
[1] = Pharmacokinetic evaluation in SD rats; assay type: in vivo, rat; settings: 2.0 mg/kg intragastric; for half-life: male, rat, plasma, po
[2] = biological target: T1, THR-β (Homo sapiens, UniProt P10828); assay: Binding activity to the thyroxine receptor beta; settings: for THR-α/-β selectivity: ratio of binding IC50; for IC50: read-out: IC50 THR-β binding force
T1 sequence (P10828 1-461): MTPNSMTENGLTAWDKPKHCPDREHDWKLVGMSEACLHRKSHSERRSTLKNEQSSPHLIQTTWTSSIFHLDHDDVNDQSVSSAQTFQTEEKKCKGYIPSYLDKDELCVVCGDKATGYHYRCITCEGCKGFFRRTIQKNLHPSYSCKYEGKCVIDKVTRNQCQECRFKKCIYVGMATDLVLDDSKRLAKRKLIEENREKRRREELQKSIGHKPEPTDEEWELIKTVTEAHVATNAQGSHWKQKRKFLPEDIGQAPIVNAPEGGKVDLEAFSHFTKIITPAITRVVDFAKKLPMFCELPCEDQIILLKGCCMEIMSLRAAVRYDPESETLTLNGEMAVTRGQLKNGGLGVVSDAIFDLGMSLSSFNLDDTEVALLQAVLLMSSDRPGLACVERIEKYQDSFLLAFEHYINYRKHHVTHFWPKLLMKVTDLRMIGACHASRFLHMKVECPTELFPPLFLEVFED

| Curve area [1] | Time to peak [1] | half-life [1] | Peak blood drug concentration [1] | Structure (SMILES) | THR-α/-β selectivity [2] | IC50 [2] |
| --- | --- | --- | --- | --- | --- | --- |
| 9242 ± 1245 ng·h/mL | 5.33 ± 1.15 h | 5.14 ± 0.83 h |  | CC1(C)CCc2c(Oc3c(Cl)cc(-n4cc(C#N)c(=O)[nH]c4=O)cc3Cl)n[nH]c(=O)c21 [Compound 6] |  |  |
|  |  |  |  | N#Cc1nn(-c2cc(Cl)c(Oc3n[nH]c(=O)c4c3CCCC4)c(Cl)c2)c(=O)[nH]c1=O [Compound 3] | >8.1 factor | 1230 nM |
|  |  |  |  | O=c1cnn(-c2cc(Cl)c(Oc3n[nH]c(=O)c4ccccc34)c(Cl)c2)c(=O)[nH]1 [Compound 11] |  | 262 nM |
| 12854 ± 961 ng·h/mL | 5.3 ± 1.15 h | 3.53 ± 0.42 h | 1163 ± 97.1 ng/mL | CC(C)c1cc(Oc2c(Cl)cc(-n3nc(C#N)c(=O)[nH]c3=O)cc2Cl)n[nH]c1=O [Reference compound, 2-[3,5-Dichloro-4-(5-isopropyl-6-oxo-1,6-dihydropyridazin-3-yloxy)phenyl]-3,5-dioxo-2,3,4,5-tetrahydro[1,2,4]triazine-6-carbonitrile, reference compound] |  |  |
|  |  |  |  | N#Cc1nn(-c2cc(Cl)c(Oc3n[nH]c(=O)c4c(Cl)cccc34)c(Cl)c2)c(=O)[nH]c1=O [Compound 7] | >6.80 factor | 1470 nM |
